Where two headings read alike, the source gives them in different places. Square brackets hold non-standard residues; d marks the D form. * marks the point of attachment. AMC = Cc1cc(=O)oc2cc(N*)ccc12; pGlu = O=C1CC[C@@H](C(=O)O)N1
Legend:
human recombinant furin [1] = biological target: T1, human recombinant furin (Homo sapiens, UniProt P09958); format: biochemical
T1 construct: Soluble human recombinant furin was kindly gifted; gift of Dr Anna Kwiatkowska (group of Prof. Robert Day, Université de Sherbrooke)
Experimental: Initially, the activities of the furin inhibitors were screened at three concentrations, i.e., 2.4, 24.0, and 77.0 nM (Figure 4). For selected peptides 3, 5, and 6 and the reference FI, the inhibitory constants (Ki) were calculated (Table 2). Except for the bicyclic peptide 4, all of the inhibitors almost completely abolished the enzyme activity at the highest tested concentration. Peptide 4 was explicitly the weakest inhibitor in the series, also when compared with its monocyclic disulfide-bridged counterpart 1. When the inhibitory activities were analyzed at the lowest tested concentration (2.4 nM), three peptides (3, 5, and 6) reduced the furin activity to less than 50% of its initial noninhibited activity. All of them have an additional basic amino acid at their N-termini (in MD simulations this is depicted as a residue with number “0”). […] Such close inhibitory potency was not observed in the case of an analogous pair, i.e., 2 and 5. […] The two disulfide-bridged peptides, FI and 1, differ only at the P4 position, having Lys and Arg, respectively. […]
The IC50 values (inhibitor concentrations giving 50% inhibition of enzyme activity) were calculated from plots of enzyme activity (% of control sample) versus the inhibitor’s concentration using a four-parameter fit model (GraFit 5.0.12 Erithacus Software Ltd.). The IC50 values were determined from triplicate measurements with at least seven different inhibitor concentrations. The K i values […] were calculated using the Cheng-Prusoff equation, assuming the competitive mode of inhibition, according to the following relationship: IC50 = K i(1+S/Km). All measurements were performed using a Fluostar Omega microplate reader (BMG Labtech, Germany) and 96-well black plates (BRAND, Germany). Recombinant human matriptase-1/ST14 catalytic domain was purchased from R&D Systems, USA. Recombinant human matriptase-2 was obtained from Enzo Life Sciences, Switzerland.
Soluble human recombinant furin was kindly gifted by Dr Anna Kwiatkowska (group of Prof. Robert Day from Université de Sherbrooke).4
The following assay buffers were used: […] (matriptase-1 and matriptase-2), pH 7.5 100 mM HEPES with 1 mM CaCl 2 and 1.8 mg/mL BSA (furin). The substrates used in the assays were as follows: for matriptase-1 and matriptase-2 Boc-Gln-Ala-Arg-AMC (Pepta Nova, Germany) in final concentration of 5 µM, for furin […] (Pepta Nova, Germany) in final concentration of 20 µM. Enzymes concentrations were as follows: 1.25 ng/mL of matriptase-1, 1.51 U/mL for matriptase-2, and 1.1 nM for furin. In the case of matriptase-1 and matripase-2 concentrations were calculated according to information provided by the suppliers.
In short, the tested compounds were added to the appropriate protease in different concentrations and incubated in an assay buffer at 37 °C for 30 min. After this time, a solution of appropriate substrate was added. Reactions were monitored for at least 40 min at 37 °C. The final volume in each well was 200 µL for matriptases and 100 µL for furin. Measurements were carried out using excitation and emission wavelengths of 380 nm and 450 nm. The percentage inhibition of an enzyme was calculated relative to the control sample without an inhibitor. The K m value for furin substrate was determined by incubating the enzyme with its substrate in various concentrations as recommended.5 Plots of the substrate concentration versus the initial reaction velocity were analyzed according to Michaelis-Menten equation using GraFit 5.0.12 Erithacus Software Ltd. A double reciprocal (Lineweaver-Burk) plot was used to determine the Michaelis constant K m value. K m value determined for furin was 1.90 µM.
(§1) Total furin-like enzyme inhibition/activity in PANC-1 cell lysates
Cell line and cell culture. The pancreatic cancer cell line, PANC-1, was obtained from the American Type Culture Collection, ATCC (Manassas, USA). […]

human recombinant furin [2] = biological target: T1, human recombinant furin; assay: Screening (iterative deconvolution) of peptide sublibraries for furin inhibition; format: biochemical; settings: Figure 3D1
Experimental: Each of the sublibraries was screened for inhibitory activity against human recombinant furin in the presence of the fluorogenic substrate Pyr-Arg-Thr-Lys-Arg-AMC (where Pyr is pyroglutamic acid and AMC is 7-amino-4-methylcoumarin). Initially, each sublibrary was screened in a 2.2 ng/mL stock solution (Figure 3).
Phe(4-NH-Boc) we experienced difficulties with complete coupling. So we performed reactions by applying microwave heating (50 °C) which improved the process. The same procedures were applied during the whole library synthesis. 10% of mass of each portion was removed for deconvolution.
2. After that, both portions were combined and divided into 10 (j) equal portions, each of which was acylated individually with different protected amino acid. 10% of the mass of each portion was removed for deconvolution.
3. After mixing all j portions of peptidyl–resin, Cys protected derivative was attached.
4. […]
6. Sublibraries with fixed best hits in Xaa (l-j) were subsequently synthesized (using previously put aside 10% of synthesized sublibraries) and their inhibitory activity was determined until the position Xi. […] The inhibitory activity of sublibraries against furin were measured using Pyr-Arg-Thr-Lys-Arg-AMC fluorogenic substrate (Pepta Nova). The experiments were performed on 96-well plates (BRAND, Germany) and microplate reader FluoStar Omega (BMG Labtech, Germany). […]

PANC-1 cell lysate = settings: human, 37 °C
[3] = test system: furin-like enzyme activity in PANC-1 cell lysate; assay: Total furin-like enzyme activity in PANC-1 cell lysate; format: biochemical, human; settings: peptide 100 µM
Experimental: The presence of furin in PANC-1 cell lysate was indicated by analyzing the release of fluorescent AMC product after incubation of furin substrate (Pyr-Arg-Thr-Lys-Arg-AMC) in the lysate, as described elsewhere.[31],[32] However, we are aware that this assay tends to reflect total furin-like enzyme activity rather than the activity of furin exclusively. This is the case because the liberation of AMC may be catalyzed not only by furin but also by an enzyme with a similar substrate preference, such as other PCs.[31] […] For comparison, the effect of a strong trypsin inhibitor, […] SFTI-1, on furin-like activity was insignificant under the same assay conditions. […] It is likely that SFTI-1 may provide protection for furin inhibitors from degradation by trypsin-like proteases. […]
µL for matriptases and 100 µL for furin. Measurements were carried out using excitation and emission wavelengths of 380 nm and 450 nm. The percentage inhibition of an enzyme was calculated relative to the control sample without an inhibitor. […]
as §1
Cell line and cell culture. The pancreatic cancer cell line, PANC-1, was obtained from the American Type Culture Collection, ATCC (Manassas, USA). PANC-1, a human pancreatic cancer cell line, was isolated from the pancreatic duct (ATCC, CRL-1469) and was cultured in Dulbecco’s Modified Eagle’s Medium (DMEM) by supplementing 10% fetal bovine serum (FBS) and 1% of penicillin/streptomycin (P/S). Cells were cultured at 37 °C with 5% CO2 in a humidified atmosphere. Cells were maintained in a 75 cm2 tissue culture flask. The medium was replaced every two days. The subcultivation ratio was […]
Preparation of lysates. PANC-1 cells were seeded in a Petri dishes. After 24 hours, […] were collected and centrifuged at 975 × g at 4 °C for 9 minutes. The supernatant was removed, and the cells were resuspended in a cold PBS buffer. The cells were centrifuged again at 900 × g at 4 °C for 5 minutes.
The supernatant was removed. Cells were suspended in Halt Protease Inhibitor Cocktail, EDTA-Free (100X) (Thermo Fisher Scientific). The samples were stored for 2 hours at -80°C. The samples were then defrosted and centrifuged at 16 000 × g at 4 °C for 20 minutes. The supernatant was stored at -80 […]
The inhibitory potency of selected peptides was examined in cell lysate alone or in presence of sunflower trypsin inhibitor (SFTI-1)6 sing furin fluorogenic substrate […] (Pepta Nova, Germany). Furin activity was determined by monitoring the AMC liberation over time with a plate reader. Measurements were performed using 96-well black plates (BRAND, Germany).
The general procedure was according to.7 In short: 20 µL of cell lysate (diluted 10 times with assay buffer pH 7.5 100 mM HEPES with 1 mM CaCl 2) was added to the well containing 60 µL of water, after 15 min in 37 °C 10 µL of peptide solution (final concentration in well 100 µM) was added. After 30 min incubation in 37 °C 10 µL substrate (100 µM final concentration) was added. […]
Next step was addition of appropriate peptide solution
(final concentration in well 100 µM) and 30 min incubation in 37 °C. After this time 10 µL substrate (100 µM final concentration) was added to the well. Percentage inhibition of the enzyme was calculated relative to the control sample without inhibitor.
Human serum from plasma (Sigma Aldrich, Germany) was prepared for the assay as referred previously.8 The experiments were carried out according to the procedure described before.2 The initial concentration of the peptide solutions was 1.54 mM. Each peptide solution was then diluted 10 times with human serum and incubated at 37 °C. Immediately after the start of incubation, 1, 2, 3, 5 and 24

[4] = inhibitor 77.0 nM (highest tested concentration)

T1 sequence (P09958 108-715 limits assumed): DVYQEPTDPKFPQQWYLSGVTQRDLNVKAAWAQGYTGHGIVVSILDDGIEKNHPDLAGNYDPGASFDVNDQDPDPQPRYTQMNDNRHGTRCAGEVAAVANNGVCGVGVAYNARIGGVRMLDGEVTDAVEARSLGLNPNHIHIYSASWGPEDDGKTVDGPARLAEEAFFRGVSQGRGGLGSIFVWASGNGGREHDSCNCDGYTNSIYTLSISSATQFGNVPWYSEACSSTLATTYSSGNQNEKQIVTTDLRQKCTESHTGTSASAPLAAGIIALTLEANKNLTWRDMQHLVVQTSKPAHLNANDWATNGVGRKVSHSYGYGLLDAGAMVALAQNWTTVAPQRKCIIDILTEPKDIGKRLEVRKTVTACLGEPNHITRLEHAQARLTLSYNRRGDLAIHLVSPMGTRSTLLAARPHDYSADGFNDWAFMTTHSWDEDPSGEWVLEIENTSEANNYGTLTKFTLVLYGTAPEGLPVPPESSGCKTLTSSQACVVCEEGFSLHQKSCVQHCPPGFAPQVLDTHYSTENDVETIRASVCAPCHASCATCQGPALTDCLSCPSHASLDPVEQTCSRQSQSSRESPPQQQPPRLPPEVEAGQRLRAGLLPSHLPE

| Substance | furin activity versus control with no inhibitor added (human recombinant furin [1]; inhibitor 2.4 nM) | furin activity versus control with no inhibitor added (human recombinant furin [1]; inhibitor 24.0 nM) | furin activity versus control with no inhibitor added (human recombinant furin [1]; [4]) | times more active than the peptide with Orn at P2 (human recombinant furin [2]) | cleaved bond (PANC-1 cell lysate) | effect on furin-like activity in PANC-1 cell lysate [3] |
| --- | --- | --- | --- | --- | --- | --- |
| &^1Arg-Arg-Cys(&^2)-Lys-Lys-Ser-Ile-Pro-Pro-Ile-Cys(&^2)-Phe&^1 (KKSIPPIC; Arg-Arg-Cys, Phe; head-to-tail cyclised, disulfide; printed: Lys-Lys-Ser-Ile-Pro-Pro-Ile-Cys) [inhibitor 4] | 97.18% | 46.14% | 3.72% | – | – | – |
| Arg-Arg-Cys(&)-Lys-Lys-Ser-Ile-Pro-Pro-Ile-Cys(&)-Phe-NH2 [inhibitor 1] | 62.95% | 6.02% | 0.20% | 2–3 times | – | – |
| Lys-Arg-Arg-Cys(&)-Lys-Lys-Ser-Ile-Pro-Pro-Ile-Cys(&)-Phe-NH2 [inhibitor 2] | 66.51% | 3.98% | 0.10% | – | – | – |
| [pGlu]RTKR-{AMC} | – | – | – | – | Arg-AMC | – |
| sunflower trypsin inhibitor 1 [SFTI-1, reference compound] | – | – | – | – | – | insignificant |

Source: PMC10107917 (ACS Medicinal Chemistry Letters, 2023)
